Measurements published in PubChem BioAssay AID248 (DTP/NCI, 2004).
Inconclusive results and toxic doses are left out.

Test system: L1210 leukemia ip in BDF1 mice, survival T/C
Experiment: NCI In Vivo Anticancer Drug Screen. Data for tumor model L1210 Leukemia (intraperitoneal) in B6D2F1 (BDF1) mice
Details: endpoint: mean survival time, higher = longer survival
Summary of the method: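 Each compound was tested against a transplantable tumor grown in mice. The endpoint was survival, with treated animals benchmarked against vehicle controls as a simple ratio.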

[1] = dose: 100.0 mg/kg/injection, schedule: Q01DX001 (ip), vehicle: Klucel (hydroxypropylcellulose) (HPC)
[2] = dose: 100.0 mg/kg/injection, schedule: Q01DX009 (ip), vehicle: Klucel (hydroxypropylcellulose) (HPC)
[3] = dose: 100.0 mg/kg/injection, schedule: Q04DX003 (ip), vehicle: Klucel (hydroxypropylcellulose) (HPC)
[4] = dose: 200.0 mg/kg/injection, schedule: Q01DX001 (ip), vehicle: Klucel (hydroxypropylcellulose) (HPC)
[5] = dose: 200.0 mg/kg/injection, schedule: Q01DX009 (ip), vehicle: Klucel (hydroxypropylcellulose) (HPC)
[6] = dose: 200.0 mg/kg/injection, schedule: Q04DX003 (ip), vehicle: Klucel (hydroxypropylcellulose) (HPC)
[7] = dose: 400.0 mg/kg/injection, schedule: Q01DX001 (ip), vehicle: Klucel (hydroxypropylcellulose) (HPC)
[8] = dose: 400.0 mg/kg/injection, schedule: Q01DX009 (ip), vehicle: Klucel (hydroxypropylcellulose) (HPC)
[9] = dose: 400.0 mg/kg/injection, schedule: Q04DX003 (ip), vehicle: Klucel (hydroxypropylcellulose) (HPC)
[10] = dose: 25.0 mg/kg/injection, schedule: Q01DX009 (ip), vehicle: saline with Tween-80
[11] = dose: 50.0 mg/kg/injection, schedule: Q01DX009 (ip), vehicle: saline with Tween-80
[12] = dose: 100.0 mg/kg/injection, schedule: Q04DX003 (ip), vehicle: saline with Tween-80
[13] = dose: 200.0 mg/kg/injection, schedule: Q04DX003 (ip), vehicle: saline with Tween-80
[14] = dose: 100.0 mg/kg/injection, schedule: Q01DX009 (ip), vehicle: saline with Tween-80
[15] = dose: 200.0 mg/kg/injection, schedule: Q01DX009 (ip), vehicle: saline with Tween-80
[16] = dose: 400.0 mg/kg/injection, schedule: Q04DX003 (ip), vehicle: saline with Tween-80
[17] = dose: 100.0 mg/kg/injection, schedule: Q01DX001 (ip), vehicle: carboxymethylcellulose (CMC)
[18] = dose: 200.0 mg/kg/injection, schedule: Q01DX001 (ip), vehicle: carboxymethylcellulose (CMC)
[19] = dose: 400.0 mg/kg/injection, schedule: Q01DX001 (ip), vehicle: carboxymethylcellulose (CMC)
[20] = dose: 400.0 mg/kg/injection, schedule: Q04DX002 (ip), vehicle: saline with Tween-80
[21] = dose: 100.0 mg/kg/injection, schedule: Q01DX001 (ip), vehicle: saline
[22] = dose: 200.0 mg/kg/injection, schedule: Q01DX001 (ip), vehicle: saline
[23] = dose: 400.0 mg/kg/injection, schedule: Q01DX001 (ip), vehicle: saline

Compound: CS1(=O)=CC(=O)CC(c2ccccc2)C1 (stereo unspecified)
- T/C [1]: 101 % of control
- T/C [2]: 107 % of control
- T/C [3]: 106 % of control
- T/C [4]: 98 % of control
- T/C [5]: 102 % of control
- T/C [6]: 104 % of control
- T/C [7]: 98 % of control
- T/C [8]: 107 % of control
- T/C [9]: 102 % of control

Compound: Cc1ccc2nc3c(nc2c1)-c1cccc2cccc-3c12
- T/C [10]: 94 % of control
- T/C [11]: 90 % of control
- T/C [12]: 102 % of control
- T/C [13]: 93 % of control

Compound: CCO/C=C/C(=O)NC(=O)OCC
- T/C [14]: 95 % of control
- T/C [12]: 97 % of control
- T/C [15]: 91 % of control
- T/C [13]: 100 % of control
- T/C (dose: 400.0 mg/kg/injection, schedule: Q01DX009 (ip), vehicle: saline with Tween-80): 101 % of control
- T/C [16]: 94 % of control

Compound: C=CC[N+](CCO)(CCO)CCCCCCCCCCCCCCCCCC
- T/C (dose: 12.5 mg/kg/injection, schedule: Q04DX002 (ip), vehicle: saline): 102 % of control
- T/C (dose: 25.0 mg/kg/injection, schedule: Q04DX002 (ip), vehicle: saline): 97 % of control

Compound: CC(=O)Oc1ccc2ccccc2c1CN(Cc1c(OC(C)=O)ccc2ccccc12)C(C)=O
- T/C (dose: 100.0 mg/kg/injection, schedule: Q01DX001 (ip), vehicle: other): 96 % of control
- T/C (dose: 400.0 mg/kg/injection, schedule: Q01DX001 (ip), vehicle: other): 93 % of control

Compound: N#CC1CC2c3ccccc3C1([N+](=O)[O-])c1ccccc12 (stereo unspecified)
- T/C [1]: 90 % of control
- T/C [2]: 98 % of control
- T/C [4]: 104 % of control
- T/C [5]: 98 % of control
- T/C [7]: 96 % of control
- T/C [8]: 103 % of control

Compound: O=C1C(Cl)=C(Nc2ccc(Br)cc2)C(=O)C(Cl)=C1Nc1ccc(Br)cc1
- T/C (dose: 50.0 mg/kg/injection, schedule: Q01DX001 (ip), vehicle: carboxymethylcellulose (CMC)): 92 % of control
- T/C [17]: 92 % of control
- T/C [12]: 98 % of control
- T/C [18]: 86 % of control
- T/C [13]: 95 % of control
- T/C [19]: 90 % of control
- T/C [16]: 103 % of control

Compound: COC(=O)C1C2CC(O)C(C2)C1C(=O)OC (stereo unspecified)
- T/C (dose: 12.5 mg/kg/injection, schedule: Q04DX003 (ip), vehicle: saline with Tween-80): 95 % of control
- T/C (dose: 25.0 mg/kg/injection, schedule: Q04DX003 (ip), vehicle: saline with Tween-80): 103 % of control
- T/C (dose: 50.0 mg/kg/injection, schedule: Q04DX003 (ip), vehicle: saline with Tween-80): 94 % of control

Compound: O=C1c2ccccc2-c2c(I)cccc21
- T/C (dose: 25.6 mg/kg/injection, schedule: Q04DX002 (ip), vehicle: saline with Tween-80): 94 % of control
- T/C (dose: 64.0 mg/kg/injection, schedule: Q04DX002 (ip), vehicle: saline with Tween-80): 94 % of control
- T/C (dose: 160.0 mg/kg/injection, schedule: Q04DX002 (ip), vehicle: saline with Tween-80): 98 % of control
- T/C [20]: 94 % of control

Compound: COc1ccc(NC(=O)NC(C)(C)C)c(OC)c1
- T/C [2]: 100 % of control
- T/C [5]: 100 % of control
- T/C [8]: 98 % of control

Compound: CSc1ccc(NC(=O)NCCCCCCNC(=O)Nc2ccc(SC)cc2)cc1
- T/C [11]: 93 % of control
- T/C [14]: 96 % of control
- T/C [15]: 90 % of control

Compound: O=c1c2ccccc2c2ccccc2n1-c1ccccc1
- T/C [1]: 97 % of control
- T/C [4]: 94 % of control
- T/C [7]: 91 % of control

Compound: CCN(CC)C(N)=O
- T/C (dose: 100.0 mg/kg/injection, schedule: Q01DX009 (ip), vehicle: saline): 92 % of control
- T/C (dose: 100.0 mg/kg/injection, schedule: Q04DX003 (ip), vehicle: saline): 102 % of control
- T/C (dose: 200.0 mg/kg/injection, schedule: Q01DX009 (ip), vehicle: saline): 118 % of control
- T/C (dose: 200.0 mg/kg/injection, schedule: Q04DX003 (ip), vehicle: saline): 107 % of control
- T/C (dose: 400.0 mg/kg/injection, schedule: Q01DX009 (ip), vehicle: saline): 101 % of control
- T/C (dose: 400.0 mg/kg/injection, schedule: Q04DX003 (ip), vehicle: saline): 107 % of control

Compound: C=CC1CN2CCC1CC2C(O)c1ccnc2ccccc12 (stereo unspecified) (tested in a mixture with another compound)
- T/C [10]: 101 % of control
- T/C [11]: 98 % of control
- T/C [17]: 91 % of control
- T/C [14]: 93 % of control
- T/C [18]: 98 % of control
- T/C [19]: 93 % of control

Compound: Nc1nc2n(O)cc(C(O)C(O)CO)nc-2c(=O)n1 (stereo unspecified)
- T/C [21]: 100 % of control
- T/C [22]: 103 % of control
- T/C [23]: 103 % of control

Compound: CCOC(=O)C(CCC#N)(CCC(=O)OC)C(C)=O (stereo unspecified)
- T/C (dose: 100.0 mg/kg/injection, schedule: Q04DX002 (ip), vehicle: saline with Tween-80): 97 % of control
- T/C (dose: 200.0 mg/kg/injection, schedule: Q04DX002 (ip), vehicle: saline with Tween-80): 116 % of control
- T/C [20]: 94 % of control

Compound: OC(CN1CC1)C(O)CN1CC1 (stereo unspecified)
- T/C (dose: 0.06 mg/kg/injection, schedule: Q01DX Z (ip), vehicle: carboxymethylcellulose (CMC)): 114 % of control
- T/C (dose: 0.4 mg/kg/injection, schedule: Q01DX Z (ip), vehicle: saline): 100 % of control
- T/C (dose: 0.5 mg/kg/injection, schedule: Q01DX Z (ip), vehicle: carboxymethylcellulose (CMC)): 200 % of control
- T/C (dose: 0.6 mg/kg/injection, schedule: Q01DX Z (ip), vehicle: saline): 100 % of control
- T/C (dose: 0.9 mg/kg/injection, schedule: Q01DX Z (ip), vehicle: saline): 95 % of control
- T/C (dose: 1.0 mg/kg/injection, schedule: Q01DX Z (ip), vehicle: carboxymethylcellulose (CMC)): 90 % of control
- T/C (dose: 1.3 mg/kg/injection, schedule: Q01DX Z (ip), vehicle: saline): 95 % of control

Compound: CN(C)CCCN1c2ccccc2CCc2ccccc21
- T/C (dose: 3.12 mg/kg/injection, schedule: Q01DX009 (ip), vehicle: saline): 96 % of control
- T/C (dose: 6.25 mg/kg/injection, schedule: Q01DX009 (ip), vehicle: saline): 101 % of control
- T/C (dose: 12.5 mg/kg/injection, schedule: Q01DX009 (ip), vehicle: saline): 93 % of control
- T/C (dose: 25.0 mg/kg/injection, schedule: Q01DX009 (ip), vehicle: saline): 104 % of control
- T/C (dose: 25.0 mg/kg/injection, schedule: Q04DX003 (ip), vehicle: saline): 100 % of control
- T/C (dose: 50.0 mg/kg/injection, schedule: Q01DX009 (ip), vehicle: saline): 101 % of control
- T/C (dose: 50.0 mg/kg/injection, schedule: Q04DX003 (ip), vehicle: saline): 93 % of control
- T/C [21]: 94 % of control
- T/C [22]: 90 % of control

Compound: O=C(Nc1ccccn1)Nc1cccc2ccccc12
- T/C (dose: 100.0 mg/kg/injection, schedule: Q04DX002 (ip), vehicle: Klucel (hydroxypropylcellulose) (HPC)): 103 % of control
- T/C (dose: 200.0 mg/kg/injection, schedule: Q04DX002 (ip), vehicle: Klucel (hydroxypropylcellulose) (HPC)): 97 % of control
- T/C (dose: 400.0 mg/kg/injection, schedule: Q04DX002 (ip), vehicle: Klucel (hydroxypropylcellulose) (HPC)): 87 % of control

Compound: NC(N)(C(F)(F)F)C(F)(F)F
- T/C [21]: 101 % of control
- T/C [22]: 102 % of control
- T/C [23]: 98 % of control

Compound: CCCCCCCCCCCC(=O)NC(=S)Nc1cccc2ccccc12
- T/C [3]: 90 % of control
- T/C [6]: 97 % of control

Compound: CCOc1ccc(N=[N+]([O-])c2ccc(OCC)cc2)cc1
- T/C (dose: 100.0 mg/kg/injection, schedule: Q01DX001 (ip), vehicle: saline with Tween-80): 103 % of control
- T/C (dose: 200.0 mg/kg/injection, schedule: Q01DX001 (ip), vehicle: saline with Tween-80): 103 % of control
- T/C (dose: 400.0 mg/kg/injection, schedule: Q01DX001 (ip), vehicle: saline with Tween-80): 92 % of control

Compound: COc1ccc(OC)c([N+](=O)[O-])c1
- T/C [21]: 100 % of control
- T/C [2]: 100 % of control
- T/C [3]: 93 % of control
- T/C [22]: 105 % of control
- T/C [5]: 94 % of control
- T/C [6]: 95 % of control
- T/C [23]: 96 % of control
- T/C [8]: 88 % of control
- T/C [9]: 93 % of control
